The values that follow come from patent US5385833A, “Pseudomonas sp. ATCC No. 49794 alcohol dehydrogenase” (The Scripps Research Institute, priority 1992, dated 1995).

One may read the Km as the concentration of substrate that gives half-maximal velocity.

In the first assay the test system is Pseudomonas sp. strain PED alcohol dehydrogenase. The experiment in a line: PED alcohol dehydrogenase enzyme assay, reduction of carbonyl substrates (relative rates).
Conditions: not given
The format is biochemical.
Compound `CC(=O)/C=C/c1ccccc1` [Compound 54] came in with a Relative rate of 0. Same read-out and setting: the value for `CN(C)CCC(=O)c1ccccc1` [Compound 49] was 8; that for `CCC(C)=O` [Compound 59] was 100; that for `CCCCC(C)=O` [Compound 61] was 5. On to `CC(C)[C@@H]1CC[C@@H](C)CC1=O` [Compound 41], for which the Relative rate was found to be 3.4. Same read-out and setting: to `CC(=O)CCC=C(C)C` [Compound 23] belongs 7; to `CCCC(C)=O` [Compound 60], 6; to `COC(=O)CC(C)=O` [Compound 27], 135. The compound `O=C(CCl)CCl` [Compound 36] displayed a Relative rate of 6. Turning to `CC(=O)C(Cl)C(C)=O` [Compound 26], the Relative rate turned out to be 336.

As for `O=C(CCCCl)c1ccc(F)cc1` [Compound 16], the Relative rate was determined as 0. The same measure, in the same setting: to `CC(=O)C(C)Cl` (stereo not drawn) [Compound 65] belongs 11.

Turning to `CC(=O)CCC=C(C)C` [Compound 10, 6-methyl-5-hepten-2-one], the Relative rate came out at 6. `CC(=O)CCC(C)=O` [Compound 28] had a Relative rate of 9. Turning to `COC(=O)CC(=O)CCl` [Compound 9, methyl 4-chloro-3-oxobutanoate], the Relative rate was 4. Same read-out and setting: the value for `CC(=O)CCCCl` [Compound 11, 5-chloro-2-pentanone] was 5; that for `CCC(=O)c1ccccc1` [Compound 58] was less than 1.

Take `CC(=O)C#Cc1ccccc1` [Compound 51]: the Relative rate is given as less than 0.1. Compound `O=C(c1ccccc1)C(F)(F)F` [Compound 1, trifluoroacetophenone] gave a Relative rate of 7. `CC(=O)C(=O)c1ccccc1` [Compound 3, 1-phenyl-1,2-propanedione] yielded a Relative rate of 34. Consider `C#CC(C)=O` [Compound 64, 1-Butyn-3-one], for which the Relative rate came to 1.

Still in this assay, the particulars now being: Table 1; reduction, 10 mM ketone, 0.45 mM NADH, PED, change in absorbance at 340 nm; Compound 2 = 1 (2.1 U/mg enzyme).
`CC(=O)CCc1ccccc1` [Compound 6, 4-phenyl-2-butanone] returned a Relative rate of 6. Regarding `O=C(CCCCl)c1ccccc1` [Compound 8], the Relative rate came out at 4.

Compound `O=C(CCCCl)c1ccc(O)cc1` [Compound 15] displayed a Relative rate of 0. As to `CC(=O)c1ccco1` [Compound 19], the Relative rate came out at 0. On the same count and under the same terms, to `O=C(CC(=O)C(F)(F)F)c1cccs1` [Compound 18] belongs 0; to `CC(=O)c1ccccc1` [Compound 2, acetophenone], 1; to `COc1coc(C(C)=O)c1OC` [Compound 20], 0.6. The same measure, in the same setting: the value for `O=C1CCCCc2ccccc21` [Compound 21] was 4; that for `COC(=O)C(=O)c1ccccc1` [Compound 4, methyl benzoylformate] was 4.

For the compound `O=C(c1ccccc1)C1CC1` [Compound 7, phenyl cyclopropyl ketone], the Relative rate was less than 1. On the same count and under the same terms, the value for `O=C(CCl)c1ccc(O)c(O)c1` [Compound 14] was less than 0.1; that for `CCCCCC(=O)CC` [Compound 13, 3-octanone] was 3; that for `O=C[C@@H]1C[C@H]1c1ccccc1` (relative stereo) [Compound 5, 1-carboxaldehyde-2-phenylcyclopropane] was 7.

`O=C(CCCCl)c1cccs1` [Compound 17] yielded a Relative rate of 4. `CCCCC(=O)c1ccco1` [Compound 12] came in with a Relative rate of less than 0.1.

The same assay, now with this note: Table 2; determined as described in Table 1 (10 mM ketone, 0.45 mM NADH, 340 nm).
As for `O=C1C2CCC(C2)C1Cl` (stereo not drawn) [Compound 45], the Relative rate is recorded as 2. Still for that read-out and setting: the value for `CC(=O)CC(C)=O` [Compound 25] was 32.

Compound `O=C1CC2C=CC1C2` (stereo not drawn) [Compound 47] displayed a Relative rate of 0. On to `CO/C=C/C(C)=O` [Compound 71], for which the Relative rate is reported as 0. For the compound `CSC(C)C(C)=O` (stereo not drawn) [Compound 67], the Relative rate is 5. Same read-out and setting: to `CCCCCC(C)=O` [Compound 62] belongs 5; to `COC(OC)C(C)=O` [Compound 69], 5.

In turn, `O=C1CCSc2ccccc21` [Compound 56] came in with a Relative rate of 0. Same read-out and setting: the value for `CC(=O)C1CC2C=CC1C2` (stereo not drawn) [Compound 46] was 0; that for `CC(=O)c1c[nH]c2ccccc12` [Compound 53] was 0; that for `C#CC(=O)CCl` [Compound 37] was 2. With `C#CC(=O)CCC` [Compound 39, 1-Hexyn-3-one], the Relative rate was 0. In turn, `CC(=O)C1CC1` [Compound 66] yielded a Relative rate of 11. Still for that read-out and setting: to `CC1C(=O)CCC1=O` [Compound 32] belongs 0; to `CCOC(=O)CC(=O)CC` [Compound 33], 6. Turning to `CC(=O)c1ccc2c(c1)OCCO2` [Compound 52], the Relative rate is listed as 0. `CCCCCC(=O)C(=O)O` [Compound 30] yielded a Relative rate of 0. On the same count and under the same terms, to `C#CC(=O)CCC(=O)OC` [Compound 38, Methyl-4-oxo-5-hexynoate] belongs less than 0.1; to `COC(C)=CC(C)=O` [Compound 24], 0; to `COC(=O)C1CCCC1=O` (stereo not drawn) [Compound 31], 22.

On to `C/C=C/C(C)=O` [Compound 70], for which the Relative rate is reported as less than 0.1. The compound `CCOC(OCC)C(=O)c1ccccc1` [Compound 50] had a Relative rate of less than 0.1. The same measure, in the same setting: to `CC(=O)COc1ccccc1` [Compound 48] belongs 7; to `CC1=CC(=O)CCC1` [Compound 43], 0; to `CC(=O)C(C)O` (stereo not drawn) [Compound 63], 2.

As for `CC(=O)C1CCc2ccccc2C1=O` (stereo not drawn) [Compound 55], the Relative rate turned out to be 0.

Take `CCCCCC(=O)CC` [Compound 35]: the Relative rate came to 2. Same read-out and setting: to `CC(=O)C(C)CO` (stereo not drawn) [Compound 68] belongs 0; to `CC(=O)c1ccccn1` [Compound 57], 1.8; to `CC(=O)CCC(=O)O` [Compound 29], 0.

`O=C1C=CCCC1` [Compound 42] returned a Relative rate of 0.

For `C=CC(=O)CCCCC` [Compound 34], the Relative rate came out at 6. Still for that read-out and setting: to `C=CCCC(C)=O` [Compound 22] belongs 8.

Still in this assay, the particulars now being: footnote b of Table 1; 10 mM ketone, 0.45 mM NADH.
Consider `CC(=O)c1ccccc1` [Compound 2, acetophenone], for which the “Rate of reduction corresponding to relative rate 1” value stood at 2.1 U/mg enzyme.

The assay is the same for the next values; noted with them: statement in words on Table 1.
With `CC(=O)CCc1ccccc1` [Compound 6, 4-phenyl-2-butanone], the “Substrate quality compared with acetophenone” value is reported as “as good a substrate as is acetophenone”.

The test system of another assay is PED alcohol dehydrogenase. The experiment in a line: Kinetics and product inhibition of PED alcohol dehydrogenase, oxidation of 2-propanol with NAD. The settings on record: isolated PED alcohol dehydrogenase. The format is biochemical, Pseudomonas sp. strain PED.
For `NC(=O)c1ccc[n+]([C@@H]2O[C@H](COP(=O)([O-])OP(=O)(O)OC[C@H]3O[C@@H](n4cnc5c(N)ncnc54)[C@H](O)[C@@H]3O)[C@@H](O)[C@H]2O)c1` [NAD, nicotinamide adenine dinucleotide], the Km stood at 525 µM. Same read-out and setting: the value for `CC(C)O` [Compound 2-propanol, 2-propanol] was 75 µM.

The same assay, now with this note: oxidation of 2-propanol.
In the case of `NC(=O)C1=CN([C@@H]2O[C@H](COP(=O)(O)OP(=O)(O)OC[C@H]3O[C@@H](n4cnc5c(N)ncnc54)[C@H](O)[C@@H]3O)[C@@H](O)[C@H]2O)C=CC1` [NADH, reduced nicotinamide adenine dinucleotide], the “Product inhibition type versus 2-propanol” value is listed as “noncompetitive inhibitors” and the “Product inhibition type versus NAD” value is on record as “competitive inhibition”.

On to `CC(C)=O` [acetone], for which the “Product inhibition type versus 2-propanol” value is reported as “noncompetitive inhibitors” and the “Product inhibition type versus NAD” value is listed as “noncompetitive inhibition”.

Still in this assay, the particulars now being: with respect to 2-propanol under saturating NAD conditions.
In turn, `CC(C)O` [Compound 2-propanol, 2-propanol] displayed a specific activity of 36 U/mg.
